In ChEMBL document CHEMBL2440075, “In vitro structure-activity relationships of aplysinopsin analogs and their in vivo evaluation in the chick anxiety-depression model” (Bioorg Med Chem, 2013):

Key:
[1] = target: T1, 5-hydroxytryptamine receptor 2C (Homo sapiens, UniProt P28335); assay: Displacement of [3H]mesulergine from human recombinant 5HT2C receptor expressed in Flp-IN HEK cells; format: cell-based, HEK293
T1 sequence (P28335 whole entry): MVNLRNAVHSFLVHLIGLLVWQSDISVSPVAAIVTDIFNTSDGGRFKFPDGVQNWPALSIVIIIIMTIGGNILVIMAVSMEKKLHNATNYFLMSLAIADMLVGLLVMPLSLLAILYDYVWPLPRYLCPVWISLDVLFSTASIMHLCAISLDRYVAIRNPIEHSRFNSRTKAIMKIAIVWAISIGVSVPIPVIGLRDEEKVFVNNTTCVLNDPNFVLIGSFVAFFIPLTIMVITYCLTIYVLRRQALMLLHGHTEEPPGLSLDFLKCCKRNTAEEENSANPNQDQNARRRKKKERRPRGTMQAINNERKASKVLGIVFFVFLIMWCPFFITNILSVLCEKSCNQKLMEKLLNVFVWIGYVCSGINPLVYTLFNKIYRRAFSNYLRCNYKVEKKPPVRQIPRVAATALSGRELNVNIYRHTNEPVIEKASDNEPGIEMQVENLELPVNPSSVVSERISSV

[2] = target: T2, 5-hydroxytryptamine receptor 3A (Homo sapiens, UniProt P46098); assay: Displacement of [3H]GR65630 from human recombinant 5HT3 receptor expressed in HEKT cells; format: cell-based
T2 sequence (P46098 whole entry): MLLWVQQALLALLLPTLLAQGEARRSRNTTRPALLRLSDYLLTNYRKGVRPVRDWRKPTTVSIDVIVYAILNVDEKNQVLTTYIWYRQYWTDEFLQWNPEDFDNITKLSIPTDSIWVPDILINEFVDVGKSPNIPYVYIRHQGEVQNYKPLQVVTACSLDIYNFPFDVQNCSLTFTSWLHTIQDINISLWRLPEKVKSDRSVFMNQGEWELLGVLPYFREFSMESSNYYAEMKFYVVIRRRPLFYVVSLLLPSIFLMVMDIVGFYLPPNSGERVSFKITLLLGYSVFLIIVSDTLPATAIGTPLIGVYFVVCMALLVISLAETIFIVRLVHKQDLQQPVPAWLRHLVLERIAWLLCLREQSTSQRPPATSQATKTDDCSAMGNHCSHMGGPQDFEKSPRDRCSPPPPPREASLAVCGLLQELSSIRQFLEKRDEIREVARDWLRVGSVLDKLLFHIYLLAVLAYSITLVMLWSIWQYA

[3] = target: 5-hydroxytryptamine receptor 7 (Homo sapiens, UniProt P34969); assay: Displacement of [3H]LSD from human recombinant 5HT7 receptor stably expressed in HEK cells; format: cell-based, HEK293
Chain of 5-hydroxytryptamine receptor 7 (P34969 whole entry): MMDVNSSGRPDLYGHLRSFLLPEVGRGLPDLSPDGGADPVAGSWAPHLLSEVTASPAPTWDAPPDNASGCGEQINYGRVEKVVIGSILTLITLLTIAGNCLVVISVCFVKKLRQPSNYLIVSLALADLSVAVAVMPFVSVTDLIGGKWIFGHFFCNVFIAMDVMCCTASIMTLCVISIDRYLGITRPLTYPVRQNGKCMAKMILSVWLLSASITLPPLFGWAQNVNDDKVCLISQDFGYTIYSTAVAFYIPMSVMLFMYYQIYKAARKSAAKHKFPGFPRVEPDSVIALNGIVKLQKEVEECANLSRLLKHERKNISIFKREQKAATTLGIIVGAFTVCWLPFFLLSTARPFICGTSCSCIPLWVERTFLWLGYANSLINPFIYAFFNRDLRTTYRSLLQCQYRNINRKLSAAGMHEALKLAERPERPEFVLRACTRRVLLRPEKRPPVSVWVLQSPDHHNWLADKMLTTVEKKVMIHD

[4] = target: 5-hydroxytryptamine receptor 2B (Homo sapiens, UniProt P41595); assay: Displacement of [3H]LSD from human recombinant 5HT2B receptor stably expressed in HEK cells; format: cell-based, HEK293
Chain of 5-hydroxytryptamine receptor 2B (P41595 whole entry): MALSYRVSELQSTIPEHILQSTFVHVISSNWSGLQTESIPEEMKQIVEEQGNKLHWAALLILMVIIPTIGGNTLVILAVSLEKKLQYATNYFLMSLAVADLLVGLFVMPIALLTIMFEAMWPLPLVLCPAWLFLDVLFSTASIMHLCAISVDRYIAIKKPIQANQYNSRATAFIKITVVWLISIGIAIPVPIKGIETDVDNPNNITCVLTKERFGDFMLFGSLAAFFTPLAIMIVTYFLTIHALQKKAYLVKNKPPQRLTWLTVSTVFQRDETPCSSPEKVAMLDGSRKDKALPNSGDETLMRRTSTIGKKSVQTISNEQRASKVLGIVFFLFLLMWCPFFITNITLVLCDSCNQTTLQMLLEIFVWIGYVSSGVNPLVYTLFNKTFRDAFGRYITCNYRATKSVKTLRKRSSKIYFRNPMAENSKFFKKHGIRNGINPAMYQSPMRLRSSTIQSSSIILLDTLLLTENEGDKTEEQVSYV

[5] = target: T3, 5-hydroxytryptamine receptor 1A (Homo sapiens, UniProt P08908); assay: Displacement of [3H]way100635 from human recombinant 5HT1A receptor stably expressed in CHO cells; format: cell-based
T3 sequence (P08908 whole entry): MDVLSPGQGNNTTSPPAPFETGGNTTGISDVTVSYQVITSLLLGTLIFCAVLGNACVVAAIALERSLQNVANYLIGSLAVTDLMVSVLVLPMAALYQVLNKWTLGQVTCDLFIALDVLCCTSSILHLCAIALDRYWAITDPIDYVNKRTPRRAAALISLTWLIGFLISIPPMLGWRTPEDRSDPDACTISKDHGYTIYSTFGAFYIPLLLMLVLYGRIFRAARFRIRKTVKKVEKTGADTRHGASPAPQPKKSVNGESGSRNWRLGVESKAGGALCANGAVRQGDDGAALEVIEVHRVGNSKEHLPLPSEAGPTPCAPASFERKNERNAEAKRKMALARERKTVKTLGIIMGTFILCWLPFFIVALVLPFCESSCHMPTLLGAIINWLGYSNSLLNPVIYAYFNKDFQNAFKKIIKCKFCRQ

[6] = target: 5-hydroxytryptamine receptor 5A (Homo sapiens, UniProt P47898); assay: Displacement of [3H]LSD from human recombinant 5HT5A receptor expressed in Flp-In CHO cells; format: cell-based
Chain of 5-hydroxytryptamine receptor 5A (P47898 whole entry): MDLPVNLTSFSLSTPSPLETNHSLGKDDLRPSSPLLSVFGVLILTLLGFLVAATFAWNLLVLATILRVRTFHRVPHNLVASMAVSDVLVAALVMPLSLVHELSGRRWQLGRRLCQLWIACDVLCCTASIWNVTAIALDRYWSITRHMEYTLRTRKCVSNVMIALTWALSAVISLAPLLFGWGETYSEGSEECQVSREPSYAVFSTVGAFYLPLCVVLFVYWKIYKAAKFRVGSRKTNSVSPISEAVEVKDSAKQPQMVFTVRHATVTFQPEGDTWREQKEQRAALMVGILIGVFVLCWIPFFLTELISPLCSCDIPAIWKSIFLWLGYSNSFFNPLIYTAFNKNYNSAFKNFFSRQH

[7] = target: 5-hydroxytryptamine receptor 1E (Homo sapiens, UniProt P28566); assay: Displacement of [3H]5-HT from human recombinant 5HT1E receptor stably expressed in HEK cells; format: cell-based, HEK293
Chain of 5-hydroxytryptamine receptor 1E (P28566 whole entry): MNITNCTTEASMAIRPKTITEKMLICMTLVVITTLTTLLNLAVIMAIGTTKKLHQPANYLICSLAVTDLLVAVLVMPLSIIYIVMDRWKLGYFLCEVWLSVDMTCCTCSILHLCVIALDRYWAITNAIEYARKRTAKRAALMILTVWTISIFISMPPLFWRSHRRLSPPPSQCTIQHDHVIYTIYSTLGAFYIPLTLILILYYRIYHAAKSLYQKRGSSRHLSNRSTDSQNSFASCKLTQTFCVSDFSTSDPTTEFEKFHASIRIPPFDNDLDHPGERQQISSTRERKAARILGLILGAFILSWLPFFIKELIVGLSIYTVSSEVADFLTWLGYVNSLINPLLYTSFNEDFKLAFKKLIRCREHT

[8] = target: 5-hydroxytryptamine receptor 1D (Homo sapiens, UniProt P28221); assay: Displacement of [3H]5-CT from human recombinant 5HT1D receptor expressed in HEKT cells; format: cell-based
Chain of 5-hydroxytryptamine receptor 1D (P28221 whole entry): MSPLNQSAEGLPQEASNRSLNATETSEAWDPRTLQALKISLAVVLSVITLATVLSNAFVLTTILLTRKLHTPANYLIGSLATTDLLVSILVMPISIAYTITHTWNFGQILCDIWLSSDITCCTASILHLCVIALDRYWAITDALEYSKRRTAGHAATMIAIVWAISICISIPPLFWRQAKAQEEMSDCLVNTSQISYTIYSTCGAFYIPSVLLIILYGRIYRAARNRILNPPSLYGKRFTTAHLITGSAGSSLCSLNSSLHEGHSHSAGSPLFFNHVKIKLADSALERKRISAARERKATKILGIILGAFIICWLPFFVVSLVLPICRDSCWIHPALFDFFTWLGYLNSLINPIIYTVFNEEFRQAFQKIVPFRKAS

[9] = target: 5-hydroxytryptamine receptor 6 (Homo sapiens, UniProt P50406); assay: Displacement of [3H]LSD from human recombinant 5HT6 receptor stably expressed in HEK cells; format: cell-based, HEK293
Chain of 5-hydroxytryptamine receptor 6 (P50406 whole entry): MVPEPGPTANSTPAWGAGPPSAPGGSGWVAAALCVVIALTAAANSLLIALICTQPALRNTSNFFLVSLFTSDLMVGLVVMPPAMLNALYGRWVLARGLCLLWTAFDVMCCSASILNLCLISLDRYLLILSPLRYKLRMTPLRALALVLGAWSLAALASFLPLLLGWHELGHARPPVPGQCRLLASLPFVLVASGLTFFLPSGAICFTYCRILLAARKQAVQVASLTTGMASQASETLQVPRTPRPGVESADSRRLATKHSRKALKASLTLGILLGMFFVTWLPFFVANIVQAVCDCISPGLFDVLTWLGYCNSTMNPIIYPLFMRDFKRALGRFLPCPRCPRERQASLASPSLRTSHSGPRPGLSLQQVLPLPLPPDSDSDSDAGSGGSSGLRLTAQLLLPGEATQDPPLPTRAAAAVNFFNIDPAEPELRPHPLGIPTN

[10] = target: 5-hydroxytryptamine receptor 2A (Rattus norvegicus, UniProt P14842); assay: Displacement of [3H]ketanserin from rat 5HT2A receptor stably expressed in 3T3 cells; format: cell-based
Chain of 5-hydroxytryptamine receptor 2A (P14842 whole entry): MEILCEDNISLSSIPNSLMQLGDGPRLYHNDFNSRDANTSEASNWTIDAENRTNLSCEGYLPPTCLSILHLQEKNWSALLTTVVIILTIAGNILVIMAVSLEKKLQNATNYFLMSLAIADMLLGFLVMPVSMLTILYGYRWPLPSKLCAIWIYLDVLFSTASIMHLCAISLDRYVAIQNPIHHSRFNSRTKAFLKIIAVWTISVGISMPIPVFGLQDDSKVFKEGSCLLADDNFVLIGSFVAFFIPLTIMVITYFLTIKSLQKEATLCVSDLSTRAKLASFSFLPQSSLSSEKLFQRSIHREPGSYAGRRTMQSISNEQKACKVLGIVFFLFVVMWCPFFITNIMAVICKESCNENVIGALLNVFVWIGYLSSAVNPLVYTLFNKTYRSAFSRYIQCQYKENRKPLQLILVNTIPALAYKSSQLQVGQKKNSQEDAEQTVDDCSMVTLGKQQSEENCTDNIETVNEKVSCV

[11] = target: 5-hydroxytryptamine receptor 4 (Homo sapiens, UniProt Q13639); assay: Displacement of [3H]GR113808 from human recombinant 5HT4 receptor
Chain of 5-hydroxytryptamine receptor 4 (Q13639 whole entry): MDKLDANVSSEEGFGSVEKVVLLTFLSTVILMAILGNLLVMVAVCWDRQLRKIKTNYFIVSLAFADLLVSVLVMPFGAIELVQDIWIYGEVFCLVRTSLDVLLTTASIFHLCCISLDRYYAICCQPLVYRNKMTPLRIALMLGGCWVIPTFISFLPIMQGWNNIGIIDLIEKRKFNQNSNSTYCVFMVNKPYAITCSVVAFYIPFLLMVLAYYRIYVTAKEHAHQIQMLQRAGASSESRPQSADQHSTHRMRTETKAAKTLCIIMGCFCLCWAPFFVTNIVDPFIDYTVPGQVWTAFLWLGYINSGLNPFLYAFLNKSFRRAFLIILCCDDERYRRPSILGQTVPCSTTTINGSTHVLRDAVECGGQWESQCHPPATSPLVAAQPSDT

[12] = target: 5-hydroxytryptamine receptor 1B (Homo sapiens, UniProt P28222); assay: Displacement of [3H]5-CT from human recombinant 5HT1B receptor stably expressed in HEK cells; format: cell-based, HEK293
Chain of 5-hydroxytryptamine receptor 1B (P28222 whole entry): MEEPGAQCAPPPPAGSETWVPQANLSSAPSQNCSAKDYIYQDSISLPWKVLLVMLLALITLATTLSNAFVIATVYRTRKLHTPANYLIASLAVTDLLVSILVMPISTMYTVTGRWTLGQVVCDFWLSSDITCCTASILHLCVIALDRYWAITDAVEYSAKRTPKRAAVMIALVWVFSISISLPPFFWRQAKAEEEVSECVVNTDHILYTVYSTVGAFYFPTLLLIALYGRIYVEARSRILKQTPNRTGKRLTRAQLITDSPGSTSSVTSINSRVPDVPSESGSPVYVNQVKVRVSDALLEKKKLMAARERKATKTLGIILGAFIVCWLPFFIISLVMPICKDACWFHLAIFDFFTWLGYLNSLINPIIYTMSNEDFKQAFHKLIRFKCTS

Row | Structure (SMILES) | Ki [1] [nM] | Ki [4] [nM] | Ki [5] [nM] | Ki [6] [nM] | Ki [10] [nM] | also measured
1 | C/N=C1\NC(=O)/C(=C\c2c[nH]c3ccc(Br)cc23)N1C | 1080 | 883 | 2620 | – | – | Ki [2]: 6180 nM; Ki [3]: 4110 nM
2 | C/N=C1\N(C)C(=O)/C(=C\c2c[nH]c3cc(Br)ccc23)N1C | 1240 | 2470 | > 10000 | 4680 | – | –
3 | O=C1NC(=S)N/C1=C\c1c[nH]c2ccc(Br)cc12 | 4350 | 1680 | 2750 | – | – | –
4 | C/N=C1\N(C)C(=O)/C(=C\c2c[nH]c3cccc(Br)c23)N1C | 1860 | 897 | 6930 | 5080 | > 10000 | Ki [7]: > 10000 nM; Ki [8]: 2550 nM; Ki [2]: 591 nM; Ki [9]: 7520 nM
5 | CN1C(=N)NC(=O)/C1=C\c1c[nH]c2cc(Br)ccc12 | 3880 | 1380 | – | – | – | –
6 | CN1C(=N)N(C)/C(=C/c2c[nH]c3ccc(Br)cc23)C1=O | 1260 | 1250 | 527 | 6720 | – | Ki [2]: 1000 nM
7 | O=C1NC(=S)N/C1=C\c1c[nH]c2cc(Br)ccc12 | – | 2710 | – | – | – | –
8 | CN1C(=N)NC(=O)/C1=C\c1c[nH]c2c(Br)cccc12 | 4130 | 1420 | – | 1320 | > 10000 | Ki [7]: > 10000 nM
9 | C/N=C1/N/C(=C/c2c[nH]c3ccccc23)C(=O)N1C | 10000 | 5060 | – | – | – | Ki [7]: > 10000 nM
10 | C/N=C1/N/C(=C/c2c[nH]c3c(Br)cccc23)C(=O)N1C | 10000 | 839 | – | – | – | Ki [7]: > 10000 nM
11 | CSC1=NC(=O)/C(=C/c2c[nH]c3ccc(Br)cc23)N1 | 2090 | 1350 | – | – | – | Ki [11]: 3800 nM
12 | C/N=C1/N/C(=C/c2c[nH]c3cc(Br)ccc23)C(=O)N1C | 10000 | 1270 | – | – | – | Ki [7]: > 10000 nM
13 | C/N=C1\N(C)C(=O)/C(=C\c2c[nH]c3ccccc23)N1C [METHYLAPLYSINOPSIN] | 10000 | 4550 | – | – | > 10000 | Ki [7]: > 10000 nM; Ki [2]: 1510 nM; Ki [9]: 1720 nM
14 | C/N=C1/N/C(=C/c2c[nH]c3cccc(Br)c23)C(=O)N1C | 2340 | 774 | – | – | – | Ki [12]: > 10000 nM; Ki [8]: > 10000 nM
15 | CSC1=NC(=O)/C(=C/c2c[nH]c3cc(Br)ccc23)N1 | 4370 | 1140 | – | – | – | Ki [11]: 5310 nM
16 | CN1C(=N)N(C)/C(=C/c2c[nH]c3ccccc23)C1=O [APLYSINOPSIN] | 10000 | 4450 | > 10000 | – | – | Ki [2]: 3030 nM; Ki [9]: 8770 nM
17 | CN1C(=N)NC(=O)/C1=C\c1c[nH]c2cccc(Br)c12 | 2010 | 784 | – | – | 1410 | Ki [3]: 799 nM
18 | O=C1NC(=S)N/C1=C\c1c[nH]c2c(Br)cccc12 | – | – | – | – | – | Ki [11]: 2210 nM
19 | CN1C(=N)N/C(=C/c2c[nH]c3c(Br)cccc23)C1=O | 10000 | 593 | 7270 | 1550 | – | Ki [7]: > 10000 nM
20 | C/N=C1\NC(=O)/C(=C\c2c[nH]c3c(Br)cccc23)N1C | 2210 | 661 | > 10000 | 1420 | 7970 | Ki [7]: > 10000 nM; Ki [9]: 2310 nM
21 | CN1C(=N)N(C)/C(=C/c2c[nH]c3cc(Br)ccc23)C1=O | 1700 | 2670 | > 10000 | 9620 | – | –
22 | C/N=C1\N(C)C(=O)/C(=C\c2c[nH]c3c(Br)cccc23)N1C | 6470 | 965 | > 10000 | 6910 | – | Ki [12]: > 10000 nM; Ki [8]: 8870 nM; Ki [9]: 7300 nM
23 | C/N=C1\NC(=O)/C(=C\c2c[nH]c3ccccc23)N1C [ISOPLYSIN A] | 2350 | 716 | – | – | – | –
24 | CN1C(=N)N/C(=C/c2c[nH]c3ccccc23)C1=O | 10000 | 1280 | – | – | – | Ki [7]: > 10000 nM
25 | C/N=C1\N(C)C(=O)/C(=C\c2c[nH]c3ccc(Br)cc23)N1C | 2430 | 1620 | 2510 | 9120 | – | Ki [2]: 2620 nM; Ki [3]: 5370 nM
26 | CN1C(=N)NC(=O)/C1=C\c1c[nH]c2ccccc12 | 4780 | 964 | – | – | – | –
27 | CSC1=NC(=O)/C(=C/c2c[nH]c3c(Br)cccc23)N1 | – | 993 | – | – | – | Ki [11]: 2350 nM
28 | CN1C(=N)NC(=O)/C1=C\c1c[nH]c2ccc(Br)cc12 | 2450 | 852 | 3210 | – | – | Ki [7]: > 10000 nM
29 | CSC1=NC(=O)/C(=C/c2c[nH]c3cccc(Br)c23)N1 | 885 | 780 | – | – | – | Ki [11]: 1060 nM

Continued, in another order:

Row | Ki [1] [nM] | Ki [4] [nM] | Ki [5] [nM] | Ki [6] [nM] | Ki [10] [nM] | Structure (SMILES) | also measured
30 | 1270 | 94 | 7360 | 2330 | 279 | CN1C(=N)N/C(=C/c2c[nH]c3ccc(Br)cc23)C1=O | Ki [3]: 1220 nM
31 | 426 | 93 | – | – | 676 | C/N=C1\NC(=O)/C(=C/c2c[nH]c3ccc(Br)cc23)N1 | Ki [11]: 226 nM; Ki [9]: 860 nM
32 | 980 | 154 | – | – | – | C/N=C1\NC(=O)/C(=C/c2c[nH]c3cc(Br)ccc23)N1 | Ki [11]: 1160 nM
33 | 1920 | 190 | > 10000 | 5360 | 4160 | CN1C(=N)N/C(=C/c2c[nH]c3cc(Br)ccc23)C1=O | –
34 | 841 | 457 | – | 112 | 2150 | N=C1NC(=O)/C(=C\c2c[nH]c3c(Br)cccc23)N1 | Ki [7]: > 10000 nM; Ki [9]: 1400 nM
35 | 1340 | 520 | – | – | > 10000 | C/N=C1/N/C(=C/c2c[nH]c3ccc(Br)cc23)C(=O)N1C | Ki [3]: 3350 nM
36 | 2280 | 489 | – | – | – | C/N=C1\NC(=O)/C(=C\c2c[nH]c3cc(Br)ccc23)N1C | –
37 | 349 | 232 | – | 101 | 1170 | N=C1NC(=O)/C(=C\c2c[nH]c3ccccc23)N1 | –
38 | 970 | 287 | – | – | – | C/N=C1\NC(=O)/C(=C/c2c[nH]c3ccccc23)N1 | Ki [11]: 928 nM
39 | 678 | 353 | – | 3320 | 3590 | C/N=C1\NC(=O)/C(=C/c2c[nH]c3c(Br)cccc23)N1 | Ki [11]: 603 nM
40 | 1700 | 228 | 3440 | 1280 | 8670 | CN1C(=N)N/C(=C/c2c[nH]c3cccc(Br)c23)C1=O | –
41 | 604 | 447 | – | 123 | 4620 | N=C1NC(=O)/C(=C\c2c[nH]c3cccc(Br)c23)N1 | –
42 | 201 | 269 | – | 184 | 3130 | N=C1NC(=O)/C(=C\c2c[nH]c3cc(Br)ccc23)N1 | Ki [7]: > 10000 nM
43 | 1870 | 369 | – | – | – | O=C1NC(=S)N/C1=C\c1c[nH]c2cccc(Br)c12 | Ki [11]: 2360 nM
44 | 80 | 50 | – | 3370 | 470 | C/N=C1\NC(=O)/C(=C/c2c[nH]c3cccc(Br)c23)N1 | Ki [11]: 472 nM; Ki [9]: 3730 nM
